According to patent US20040121969A1, “Antiviral nucleoside derivatives” (Roche Palo Alto LLC, priority 2002, published 2004):

What was measured:
Caco-2 cells = assay: Caco-2 cell assay permeability; assay type: in vitro ADME, Human
Text: For general discussions of the Caco Assay see: S. Yee, “In Vitro Permeability Across Caco-2 Cells (Colonic) Can Predict In Vivo (Small Intestinal) Absorption in Man—Fact or Myth” Pharm. Res. 14(6):763-766 (1997) and Yamashita et. al., “Analysis of Drug Permeation Across Caco-2 Monolayer: Implication for Predicting In Vivo Drug Absorption” Pharm. Res. 14(4):486-491(1997). For specific technical aspects see: Grass, G. M. and Sweetana, S. A. “In Vitro Measurement of Gastrointestinal Tissue Permeability Using a New Diffusion Cell” Pharm. Res. 5(6):372-376 (1988); Rubas et. al., “Comparison of the Permeability Characteristics of a Human Colonic Epithelial (Caco-2) Cell Line to Colon of Rabbit, Monkey, and Dog Intestine and Human Drug Absorption” Pharm. Res. 10(1): 113-117 (1993).
High passage (108-120) Caco-2 cells are cultured in Dulbecco's Modified Eagle Media with high Glucose and L-Glutamine (DMEM) (Gibco/Life Technologies, Cat # 11965-084) supplemented with 10% Fetal Bovine Serum, 1× L-Glutamine (Gibco/Life Technologies, Cat # 25030-081) 1× Penicillin-streptomycin (Gibco/Life Technologies, Cat # 15140-122) 1× Non-essential Amino Acids, (Gibco/Life Technologies, Cat # 11140-019). Cells are maintained in T225 cm^2 Cell Culture Flask Tissue Culture Treated (Costar, Cat # 3001) at 37° C. and 5% CO2. For transport experiments, cells are plated at 7.1×10^4 cells/well into 12-well collagen-coated PTFE membrane polystyrene plates with inserts (Costar # 3493, 12 mm diameter, 0.4 um pore size, sterile, tissue culture treated). Cells are fed every 3 days and maintained at 37° C. and 5% CO2 for 21 days to allow complete formation of a polarized monolayer with tight junctions.
Prepare 5 mg/ml stock solution of test compound in DMSO and store at 4° C. Dilute desired amount of 5 mg/ml stock to 10 mL with pH 6.5 Kreb's Henseleit bicarbonate buffer to give a concentration of 100 μM. Then 1 mL of 100 μM solution was further diluted to 5 mL to make the concentration of 20 μM. This 20 μM test solution was used as initial donor dosing solution (D0). Warm drug solution(s) to 37° C. before use.
1. Prewarm buffer, working solutions, and three 12-well plates containing buffer for each plate of 12 inserts. Using a millicell®-ERS equipped with “chopstick” electrodes (Millipore, Bedford, Mass.) check the TEER. This procedure should be done when the cells are at approximately 37° C., since TEER is effected by temperature. Use only those inserts that have TEER above 300 ohms.
2. Decant media and wash each insert once with warm Kreb's-Henseleit bicarbonate buffer.
3. 0.5 mL pH 6.5 Kreb's-Henseleit buffer was added to apical side of the cell monolayers and 1.25 mL pH 7.4 Kreb's-Henseleit buffer to the basolateral chamber. The cells were equilibrated in 37° C. and 5% CO2 incubator for at least 30 minutes.
4. The apical side buffer was removed and replaced with 0.5 mL 20 μM test solutions.
5. The cells were then incubated at 37° C. and 5% CO2.
6. At 30, 60 and 90 minutes time points, the inserts were transferred to new plates which receiver sides contained 1.25 mL warm fresh pH 7.4 Kreb's-Henseleit buffer.
7. The media from all plates were collected as receiver samples.
8. After 60 min transport studies, Lucifer Yellow (0.05 mL×1000 μM) was added to the apical side of the wells. At the end of the transport studies (90 minutes), the fluorescence of the receiver side samples was measured.
Sample solutions from the donor side were collected at the end of the experiments as D90 samples. The dC/dt of test substance was calculated from sampling data at […] (assume 0 ng/mL) and 60 minutes. The apparent permeability coefficient (Papp) was calculated from the following equation, [formula] […]

[1] = background statement; cited from earlier work
human mononuclear cells = conditions: treatment of human mononuclear cells; cited from earlier work
[2] = apparent permeability coefficient (Papp), apical pH 6.5 to basolateral pH 7.4, 20 μM test solution, 37° C.

Molecule	Caco-2 permeability (Caco-2 cells; [2])	further results
CC[C@H](C)[C@H](N)C(=O)OC[C@@H]1O[C@H](n2cnc(C(N)=O)n2)[C@@H](O)[C@H]1O.Cc1ccc(S(=O)(=O)O)cc1 [Compound 10, 2S-amino-3S-methyl-pentanoic acid 5S-(3-carbamoyl-[1,2,4]triazol-1-yl)-3R,4S-dihydroxy-tetrahydro-furan-2S-ylmethyl ester; compound with toluene-4-sulfonic acid]	1.5 ×10⁻⁶ cm/s	–
2S-amino-3-methyl-butyric acid 4S-(2S-amino-3-methyl-butyryloxy)-5S-(3-carbamoyl-[1,2,4]triazol-1-yl)-2S-hydroxymethyl-tetrahydrofuran-3S-yl ester dihydrochloride [Compound 3]	8.6 ×10⁻⁶ cm/s	–
NC(=O)c1ncn([C@H]2O[C@@H](CO)[C@@H](O)[C@H]2O)n1 [levovirin, Levovirin]	–	dose absorbed systemically after oral administration [1]: about 15%
NC(=O)c1ncn([C@H]2O[C@@H](CO)[C@H](OC(=O)c3ccccc3)[C@@H]2OC(=O)c2ccccc2)n1 [Compound 28, benzoic acid 4S-benzoyloxy-5S-(3-carbamoyl-[1,2,4]triazol-1-yl)-2S-hydroxymethyl-tetrahydro-furan-3S-yl ester]	26.6 ×10⁻⁶ cm/s	–
CC(C)C[C@H](N)C(=O)OC[C@@H]1O[C@H](n2cnc(C(N)=O)n2)[C@@H](O)[C@H]1O.Cc1ccc(S(=O)(=O)O)cc1 [Compound 9, 2S-amino-4-methyl-pentanoic acid 5S-(3-carbamoyl-[1,2,4]triazol-1-yl)-3R,4S-dihydroxy-tetrahydro-furan-2S-ylmethyl ester; compound with toluene-4-sulfonic acid]	0.9 ×10⁻⁶ cm/s	–
C[C@H](N)C(=O)OC[C@@H]1O[C@H](n2cnc(C(N)=O)n2)[C@@H](O)[C@H]1O.Cc1ccc(S(=O)(=O)O)cc1 [Compound 7, 2S-amino-propionic acid 5S-(3-carbamoyl-[1,2,4]triazol-1-yl)-3R,4S-dihydroxy-tetrahydro-furan-2S-ylmethyl ester; compound with toluene-4-sulfonic acid]	1.2 ×10⁻⁶ cm/s	–
CC(C)[C@H](N)C(=O)OC[C@@H]1O[C@H](n2cnc(C(N)=O)n2)[C@@H](O)[C@H]1O.Cl [Compound 5, 2S-amino-3-methyl-butyric acid 5S-(3-carbamoyl-[1,2,4]triazol-1-yl)-3R,4S-dihydroxy-tetrahydro-furan-2S-ylmethyl ester, hydrochloride]	5.6 ×10⁻⁶ cm/s	–
CCC(=O)OC[C@@H]1O[C@H](n2cnc(C(N)=O)n2)[C@@H](OC(=O)CC)[C@H]1OC(=O)CC [Compound 2, propionic acid 3S,4S-bis-propionyloxy-5S-(3-carbamoyl-[1,2,4]triazol-1-yl)-tetrahydro-furan-2S-ylmethyl ester]	7.8 ×10⁻⁶ cm/s	–
CC(C)C(=O)O[C@@H]1[C@H](OC(=O)C(C)C)[C@@H](n2cnc(C(N)=O)n2)O[C@H]1CO [Compound 17, isobutyric acid 2S-(3-carbamoyl-[1,2,4]triazol-1-yl)-5S-hydroxymethyl-4S-isobutyryloxy-tetrahydro-furan-3S-yl ester]	4.8 ×10⁻⁶ cm/s	–
NC(=O)c1ncn([C@@H]2O[C@H](CO)[C@@H](O)[C@H]2O)n1 [Ib, ribavirin]	–	levels of IL-2, TNFα and IFNΓ (human mononuclear cells): elevated levels
CCCCCCCC(=O)OC[C@@H]1O[C@H](n2cnc(C(N)=O)n2)[C@@H](O)[C@H]1O [Compound 34, octanoic acid 5S-(3-carbamoyl-[1,2,4]triazol-1-yl)-3R,4S-dihydroxy-tetrahydrofuran-2S-ylmethyl ester]	6.5 ×10⁻⁶ cm/s	–
CC(C)[C@H](N)C(=O)N1CCC[C@H]1C(=O)OC[C@@H]1O[C@H](n2cnc(C(N)=O)n2)[C@@H](O)[C@H]1O.Cl [Compound 18, 1-(2S-amino-3-methyl-butyryl)-pyrrolidine-2S-carboxylic acid 5S-(3-carbamoyl-[1,2,4]triazol-1-yl)-3R,4S-dihydroxy-tetrahydro-furan-2S-ylmethyl ester, hydrochloride]	–	Caco-2 permeability (Caco-2 cells; Caco-2): 3.4 ×10⁻⁶ cm/s
